Results on one compound are retold here after ChEMBL document CHEMBL2073812, “Functional analysis of candidate ABC transporter proteins for sitosterol transport” (Biochim Biophys Acta, 2002).

The target of data set [1] is T1, Bile salt export pump (Rattus norvegicus, UniProt O70127).
T1 sequence (O70127 whole entry): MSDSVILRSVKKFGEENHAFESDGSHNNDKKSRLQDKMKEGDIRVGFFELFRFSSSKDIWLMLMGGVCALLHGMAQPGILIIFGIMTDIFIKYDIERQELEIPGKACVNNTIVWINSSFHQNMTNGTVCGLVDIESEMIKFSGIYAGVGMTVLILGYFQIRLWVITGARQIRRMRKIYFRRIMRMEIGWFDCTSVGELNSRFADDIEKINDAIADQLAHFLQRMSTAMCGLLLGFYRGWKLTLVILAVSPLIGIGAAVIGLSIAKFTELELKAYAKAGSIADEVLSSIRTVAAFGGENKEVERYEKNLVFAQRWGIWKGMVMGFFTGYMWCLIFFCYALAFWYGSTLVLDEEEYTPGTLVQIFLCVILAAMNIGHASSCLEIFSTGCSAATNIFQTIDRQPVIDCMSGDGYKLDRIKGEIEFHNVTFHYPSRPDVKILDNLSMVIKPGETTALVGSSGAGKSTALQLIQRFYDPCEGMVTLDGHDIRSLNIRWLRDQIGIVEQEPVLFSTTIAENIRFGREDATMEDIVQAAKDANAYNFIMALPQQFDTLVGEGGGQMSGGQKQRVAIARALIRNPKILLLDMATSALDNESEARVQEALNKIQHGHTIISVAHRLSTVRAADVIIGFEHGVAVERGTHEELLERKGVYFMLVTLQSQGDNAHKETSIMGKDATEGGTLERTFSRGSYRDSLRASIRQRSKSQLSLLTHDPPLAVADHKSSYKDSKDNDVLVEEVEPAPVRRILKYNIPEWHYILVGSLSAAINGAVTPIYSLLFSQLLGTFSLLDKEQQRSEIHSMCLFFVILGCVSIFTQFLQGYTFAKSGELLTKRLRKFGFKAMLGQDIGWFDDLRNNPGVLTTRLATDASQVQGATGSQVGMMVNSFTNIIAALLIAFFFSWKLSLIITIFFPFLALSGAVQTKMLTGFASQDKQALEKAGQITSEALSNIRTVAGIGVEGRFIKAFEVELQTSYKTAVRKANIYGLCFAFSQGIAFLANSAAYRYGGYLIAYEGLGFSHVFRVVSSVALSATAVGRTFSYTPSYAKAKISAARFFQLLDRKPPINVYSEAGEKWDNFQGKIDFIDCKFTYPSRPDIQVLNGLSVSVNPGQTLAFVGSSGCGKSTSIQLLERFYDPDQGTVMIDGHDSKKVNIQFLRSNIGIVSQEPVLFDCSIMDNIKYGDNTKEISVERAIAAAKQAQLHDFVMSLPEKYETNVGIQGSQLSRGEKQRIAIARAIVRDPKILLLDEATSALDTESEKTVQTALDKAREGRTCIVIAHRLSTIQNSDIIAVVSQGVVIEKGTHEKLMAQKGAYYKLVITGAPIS
Nature of the data set: TP_TRANSPORTER: inhibition of taurocholate uptake (taurocholate: 2 uM, beta-sitosterol: 10 uM) in membrane vesicles of Bsep-expressing […] cells. Format: functional, cell membranes, Membrane vesicle. Conditions: sf9, 10 µM.

Data set [2] deals with T2, Broad substrate specificity ATP-binding cassette transporter ABCG2 (Mus musculus, UniProt Q7TMS5).
T2 sequence (Q7TMS5 whole entry): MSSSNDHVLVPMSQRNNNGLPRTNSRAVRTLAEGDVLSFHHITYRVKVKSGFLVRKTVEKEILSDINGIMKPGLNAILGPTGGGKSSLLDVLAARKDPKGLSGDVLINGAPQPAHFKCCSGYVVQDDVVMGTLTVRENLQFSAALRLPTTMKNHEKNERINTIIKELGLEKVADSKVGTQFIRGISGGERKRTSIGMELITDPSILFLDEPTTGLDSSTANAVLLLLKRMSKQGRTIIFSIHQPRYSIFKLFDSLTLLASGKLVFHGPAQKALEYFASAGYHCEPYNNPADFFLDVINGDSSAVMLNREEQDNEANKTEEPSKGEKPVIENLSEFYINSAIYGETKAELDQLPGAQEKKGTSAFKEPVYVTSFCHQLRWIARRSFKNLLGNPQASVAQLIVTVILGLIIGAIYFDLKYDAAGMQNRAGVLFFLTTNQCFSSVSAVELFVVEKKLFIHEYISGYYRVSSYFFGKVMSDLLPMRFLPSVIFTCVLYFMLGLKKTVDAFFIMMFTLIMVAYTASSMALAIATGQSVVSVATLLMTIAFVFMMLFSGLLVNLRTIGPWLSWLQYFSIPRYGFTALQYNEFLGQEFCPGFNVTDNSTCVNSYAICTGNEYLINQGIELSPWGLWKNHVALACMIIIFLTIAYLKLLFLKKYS
Nature of the data set: TP_TRANSPORTER: Flow cytometry in lymphocytes from Mdr1a/b-/- mice. Conditions: lymphocyte. It is filed as functional, cell-based.

Data set [3] concerns the target ATP-dependent translocase ABCB1 (Homo sapiens, UniProt P08183). The data set is described as follows: TP_TRANSPORTER: Flow cytometry in MDR1-expressing NIH3T3 cells. The following applies: mouse. It is filed as functional, cell-based.
Data set [4] deals with Multidrug resistance-associated protein 1 (Mus musculus, UniProt O35379). The data set is described as follows: TP_TRANSPORTER: Flow cytometry in lymphocytes from Mdr1a/b(-/)- mice. The following applies: lymphocyte. Format: functional.
Multidrug resistance-associated protein 1, sequence (O35379 whole entry): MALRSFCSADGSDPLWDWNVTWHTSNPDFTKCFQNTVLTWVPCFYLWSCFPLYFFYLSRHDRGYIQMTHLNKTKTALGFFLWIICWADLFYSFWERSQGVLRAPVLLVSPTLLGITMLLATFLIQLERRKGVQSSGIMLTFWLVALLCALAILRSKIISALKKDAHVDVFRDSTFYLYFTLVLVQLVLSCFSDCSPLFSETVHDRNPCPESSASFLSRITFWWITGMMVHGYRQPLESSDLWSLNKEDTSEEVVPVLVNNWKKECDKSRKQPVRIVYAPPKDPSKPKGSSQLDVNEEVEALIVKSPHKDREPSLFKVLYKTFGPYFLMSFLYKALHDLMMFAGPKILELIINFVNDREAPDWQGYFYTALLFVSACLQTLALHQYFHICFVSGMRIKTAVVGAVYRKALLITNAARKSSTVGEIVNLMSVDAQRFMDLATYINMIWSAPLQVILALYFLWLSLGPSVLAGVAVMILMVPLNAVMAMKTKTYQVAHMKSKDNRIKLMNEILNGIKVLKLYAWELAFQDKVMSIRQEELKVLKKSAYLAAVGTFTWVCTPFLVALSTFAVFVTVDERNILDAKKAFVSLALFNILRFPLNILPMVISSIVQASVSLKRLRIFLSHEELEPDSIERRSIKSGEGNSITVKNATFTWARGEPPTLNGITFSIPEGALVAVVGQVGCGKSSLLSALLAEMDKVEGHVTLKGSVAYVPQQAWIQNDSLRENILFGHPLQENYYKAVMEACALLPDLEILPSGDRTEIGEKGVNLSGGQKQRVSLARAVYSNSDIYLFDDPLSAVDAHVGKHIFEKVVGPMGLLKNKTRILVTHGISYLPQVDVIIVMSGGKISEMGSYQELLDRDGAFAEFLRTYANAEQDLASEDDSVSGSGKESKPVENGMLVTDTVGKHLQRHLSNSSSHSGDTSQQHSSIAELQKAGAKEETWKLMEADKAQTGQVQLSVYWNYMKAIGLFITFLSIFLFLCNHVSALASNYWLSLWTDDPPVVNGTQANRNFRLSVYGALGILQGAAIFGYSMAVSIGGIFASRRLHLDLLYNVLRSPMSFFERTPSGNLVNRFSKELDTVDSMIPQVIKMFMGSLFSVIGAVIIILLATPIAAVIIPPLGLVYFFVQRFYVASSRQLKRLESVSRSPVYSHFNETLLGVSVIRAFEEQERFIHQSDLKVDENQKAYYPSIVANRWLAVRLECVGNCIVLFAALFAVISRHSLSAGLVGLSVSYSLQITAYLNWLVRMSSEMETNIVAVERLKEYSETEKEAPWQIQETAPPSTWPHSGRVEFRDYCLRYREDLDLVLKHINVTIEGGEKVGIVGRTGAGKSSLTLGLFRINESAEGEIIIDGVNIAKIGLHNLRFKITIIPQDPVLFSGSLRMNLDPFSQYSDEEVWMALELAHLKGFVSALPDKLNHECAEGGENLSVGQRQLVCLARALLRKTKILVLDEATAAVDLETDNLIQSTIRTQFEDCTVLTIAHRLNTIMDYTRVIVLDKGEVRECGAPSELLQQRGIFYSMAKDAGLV

ATP-dependent translocase ABCB1, sequence (P08183 whole entry): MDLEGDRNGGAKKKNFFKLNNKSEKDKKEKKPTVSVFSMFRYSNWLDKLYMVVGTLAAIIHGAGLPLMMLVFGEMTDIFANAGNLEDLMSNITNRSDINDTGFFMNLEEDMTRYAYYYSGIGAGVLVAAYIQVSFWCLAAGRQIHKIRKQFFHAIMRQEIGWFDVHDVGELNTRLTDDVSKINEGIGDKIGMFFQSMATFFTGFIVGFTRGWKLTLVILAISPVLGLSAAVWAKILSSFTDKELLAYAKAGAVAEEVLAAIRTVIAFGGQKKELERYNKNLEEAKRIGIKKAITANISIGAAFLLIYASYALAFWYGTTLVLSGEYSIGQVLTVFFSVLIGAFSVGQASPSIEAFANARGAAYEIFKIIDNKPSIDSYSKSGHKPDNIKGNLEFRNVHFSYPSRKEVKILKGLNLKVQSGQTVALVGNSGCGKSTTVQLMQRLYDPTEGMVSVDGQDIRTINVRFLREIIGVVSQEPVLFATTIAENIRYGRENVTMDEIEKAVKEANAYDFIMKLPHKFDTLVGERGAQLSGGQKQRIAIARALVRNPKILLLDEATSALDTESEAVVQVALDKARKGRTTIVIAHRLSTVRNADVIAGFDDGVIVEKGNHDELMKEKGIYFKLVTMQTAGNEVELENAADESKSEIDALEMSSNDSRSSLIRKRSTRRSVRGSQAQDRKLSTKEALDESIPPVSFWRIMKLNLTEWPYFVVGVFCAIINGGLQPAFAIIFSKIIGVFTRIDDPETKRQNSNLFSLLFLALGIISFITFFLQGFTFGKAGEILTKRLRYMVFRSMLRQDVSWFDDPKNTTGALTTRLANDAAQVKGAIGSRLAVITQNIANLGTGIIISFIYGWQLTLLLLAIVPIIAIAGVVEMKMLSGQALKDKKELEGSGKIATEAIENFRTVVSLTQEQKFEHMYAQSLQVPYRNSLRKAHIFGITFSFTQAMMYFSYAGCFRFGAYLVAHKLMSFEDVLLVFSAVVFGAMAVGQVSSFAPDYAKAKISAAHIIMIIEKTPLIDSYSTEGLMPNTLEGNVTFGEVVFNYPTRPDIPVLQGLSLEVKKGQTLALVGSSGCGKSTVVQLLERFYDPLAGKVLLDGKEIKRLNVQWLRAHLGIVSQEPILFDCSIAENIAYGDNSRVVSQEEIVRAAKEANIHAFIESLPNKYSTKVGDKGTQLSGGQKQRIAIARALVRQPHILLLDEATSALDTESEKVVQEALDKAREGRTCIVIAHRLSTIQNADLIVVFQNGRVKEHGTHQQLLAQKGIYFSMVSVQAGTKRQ

Regarding `CC[C@H](CC[C@@H](C)[C@H]1CC[C@H]2[C@@H]3CC=C4C[C@@H](O)CC[C@]4(C)[C@H]3CC[C@]12C)C(C)C` [BETA-SITOSTEROL], the Activity result in data set [1] was “is not an inhibitor [-]”; in data set [2], “is not a substrate [-]”; in data set [3] it was “is not a substrate [-]”; in data set [4], “is not a substrate [-]”.
